Experiments:
[1] = Laboratory parameters, chemistry: LDH, bilirubin, SGOT, SGPT, Phase I study; type: in vivo, human
From the text: Serum LDH levels are an established strong independent negative prognostic factor, inversely related to survival in a great variety of adverse clinical conditions. In advanced refractory cancers, high LDH and low Karnofsky's performance status are among the strongest established independent negative prognostic factors of survival and quality of life (29).

[2] = Quality of life (EORTC QLQ-C30), appetite, energy and body weight, Phase I study; type: in vivo, human
From the text: Nine qualified patients have been enrolled in the study as of Sep. 1, 2001; seven of which received the first 3 cycles of the study drug and are therefore evaluable for the primary endpoint. Two of the seven evaluable patients had advanced prostate cancer with bone metastases and one each had advanced mesothelioma, metastatic breast cancer, metastatic melanoma, metastatic colon cancer and renal cell carcinoma.
Three of these parameters are EORTC QLQ-C30 patient-oriented questionnaire, skeletal (voluntary) muscle strength and percent body fat. […] The screening value is used as the patients' baseline. In some patients a deterioration in overall quality of life between screening and week 1, prior to the administration of study drug has been observed. […] A more accurate baseline for evaluation of the efficacy of ATP treatment on cancer cachexia and quality of life parameters is therefore recommended.

[3] = cited from earlier work
[4] = in vivo; cited from earlier work
[5] = patients 502-505, week 1 (pre-dose) to week 13 (follow-up)
[6] = Patient 504, while on ATP treatment
[7] = patients 502-505, week 13 follow-up

Nc1ncnc2c1ncn2[C@@H]1O[C@H](COP(=O)(O)OP(=O)(O)OP(=O)(O)O)[C@@H](O)[C@H]1O [ATP, adenosine 5′-triphosphate]
Phosphorus, Change from Baseline, Mean ([1]; Week 6 (Infusion 6), N=9): -0.1 mg/dL
Phosphorus, Change from Baseline, Median ([1]; Week 6 (Infusion 6), N=9): 0.2 mg/dL
Phosphorus, Observed Values, Mean ([1]; Week 6 (Infusion 6), N=9): 3.1 mg/dL
Phosphorus, Observed Values, Median ([1]; Week 6 (Infusion 6), N=9): 3.3 mg/dL
Total Bilirubin, Change from Baseline, Mean ([1]; Week 6 (Infusion 6), N=9): 1.2 mg/dL
Total Bilirubin, Change from Baseline, Median ([1]; Week 6 (Infusion 6), N=9): -0.1 mg/dL
Total Bilirubin, Observed Values, Mean ([1]; Week 6 (Infusion 6), N=9): 1.9 mg/dL
Total Bilirubin, Observed Values, Median ([1]; Week 6 (Infusion 6), N=9): 0.3 mg/dL
LDH, Change from Baseline, Median ([1]; Week 8 (Infusion 8), N=6): −25.0 U/L
LDH, Observed Values, Mean ([1]; Week 8 (Infusion 8), N=6): 245.0 U/L
LDH, Observed Values, Median ([1]; Week 8 (Infusion 8), N=6): 161.0 U/L
Phosphorus, Change from Baseline, Mean ([1]; Week 8 (Infusion 8), N=7): 0.3 mg/dL
Phosphorus, Change from Baseline, Median ([1]; Week 8 (Infusion 8), N=7): 0.0 mg/dL
Phosphorus, Observed Values, Mean ([1]; Week 8 (Infusion 8), N=7): 3.4 mg/dL
Phosphorus, Observed Values, Median ([1]; Week 8 (Infusion 8), N=7): 3.4 mg/dL
Total Bilirubin, Change from Baseline, Mean ([1]; Week 8 (Infusion 8), N=7): -0.0 mg/dL
Total Bilirubin, Change from Baseline, Median ([1]; Week 8 (Infusion 8), N=7): -0.1 mg/dL
Total Bilirubin, Observed Values, Mean ([1]; Week 8 (Infusion 8), N=7): 0.4 mg/dL
Total Bilirubin, Observed Values, Median ([1]; Week 8 (Infusion 8), N=7): 0.4 mg/dL
LDH, Change from Baseline, Median ([1]; Week 10 (Follow-up), N=5): −15.0 U/L
LDH, Observed Values, Mean ([1]; Week 10 (Follow-up), N=5): 214.6 U/L
LDH, Observed Values, Median ([1]; Week 10 (Follow-up), N=5): 155.0 U/L
Phosphorus, Change from Baseline, Mean ([1]; Week 10 (Follow-up), N=6): 0.0 mg/dL
Phosphorus, Change from Baseline, Median ([1]; Week 10 (Follow-up), N=6): 0.3 mg/dL
Phosphorus, Observed Values, Mean ([1]; Week 10 (Follow-up), N=6): 3.2 mg/dL
Phosphorus, Observed Values, Median ([1]; Week 10 (Follow-up), N=6): 3.3 mg/dL
Total Bilirubin, Change from Baseline, Mean ([1]; Week 10 (Follow-up), N=6): 0.1 mg/dL
Total Bilirubin, Change from Baseline, Median ([1]; Week 10 (Follow-up), N=6): -0.1 mg/dL
Total Bilirubin, Observed Values, Mean ([1]; Week 10 (Follow-up), N=6): 0.5 mg/dL
Total Bilirubin, Observed Values, Median ([1]; Week 10 (Follow-up), N=6): 0.4 mg/dL
LDH, Change from Baseline, Median ([1]; Week 13 (Follow-up), N=5): −27.0 U/L
LDH, Observed Values, Mean ([1]; Week 13 (Follow-up), N=5): 168.2 U/L
LDH, Observed Values, Median ([1]; Week 13 (Follow-up), N=5): 158.0 U/L
Phosphorus, Change from Baseline, Mean ([1]; Week 13 (Follow-up), N=5): -0.0 mg/dL
Phosphorus, Change from Baseline, Median ([1]; Week 13 (Follow-up), N=5): 0.2 mg/dL
Phosphorus, Observed Values, Mean ([1]; Week 13 (Follow-up), N=5): 3.2 mg/dL
Phosphorus, Observed Values, Median ([1]; Week 13 (Follow-up), N=5): 3.2 mg/dL
Total Bilirubin, Change from Baseline, Mean ([1]; Week 13 (Follow-up), N=6): 0.1 mg/dL
Total Bilirubin, Change from Baseline, Median ([1]; Week 13 (Follow-up), N=6): 0.1 mg/dL
Total Bilirubin, Observed Values, Mean ([1]; Week 13 (Follow-up), N=6): 0.4 mg/dL
Total Bilirubin, Observed Values, Median ([1]; Week 13 (Follow-up), N=6): 0.4 mg/dL
SGOT (serum glutamate oxaloacetate transaminase) [1, 5]: Consistent decreases
SGPT (serum glutamate pyruvate transaminase) [1, 5]: Consistent decreases
serum LDH (lactate dehydrogenase) [1, 5]: Consistent decreases
serum levels of bilirubin ([1]; week 13 of treatment): remained stable
serum levels of lactate dehydrogenase (LDH) ([1]; week 13 of treatment): dropped
patient's comment on energy / appetite ([2]; Patient 502, during the treatment period): improved energy levels
patient's comment on energy / appetite ([2]; Patient 503, during ATP therapy): improved energy and appetite
patient's comment on energy / appetite [2, 6]: increased energy and appetite
weight [2, 6]: increasing
patient's comment on energy / appetite ([2]; Patient 505, while on study): improved energy and appetite
patient's comment on energy / appetite ([2]; Patient 506): more energy and improved appetite
Other Endpoints (patient's comment on energy) ([2]; Patient 507, while on ATP Rx): Felt more energy
patient's comment on energy / activity ([2]; Patient 509): subjective improvement in energy and activity
subjective comments of several patients on appetite and energy ([2]; during the study, first nine patients): improved appetite and energy
Global Health Status of the QOL EORTC QLQ-C30 ([2]; patients 502-505, screening (week <1) to follow-up (week 10)): Increases
appetite loss ([2]; patients 502-505, screening to week 10 (follow-up)): Decreases
body weight [2, 5]: Stabilization
Global Health Status of the QOL EORTC QLQ-C30 [2, 7]: decline
appetite loss [2, 7]: return to screening baseline
increase in vascular diameter ([3]; blood plasma ATP about 1 microM): 8%
increase in blood flow ([3]; blood plasma ATP about 1 microM, corresponding to the increase in vascular diameter): ≥ 17%
site of vasodilation ([3]; intraluminal, physiological concentrations): not only local vasodilation, but also vasodilation at sites upstream from the site of its application
half-life of expanded ATP pools in red blood cells [4]: about 6 hours

From patent US20070203091A1, “Methods and therapeutic compositions for improving liver, blood flow and skeletal muscle functions in advanced diseases and aging” (priority 2006, published 2007)
